Consider 1 compound from patent publication US6476243B1, “Perfluorinated esters of alkanoyl L-carnitine for the preparation of cationic lipids for the intracellular delivery of pharmacologically active compounds” (Sigma-Tau Industrie Farmaceutiche Riunite S.p.A., priority 1998, dated 2002).

Holding throughout (type): cell-based, human
Common to all, as to conditions: for β-Gal: liposome-DNA complex, with serum

One assay has as its system HeLa cells. The experiment in a line: pCMV-β-Gal plasmid DNA transfection mediated by ST1223 cationic liposomes, β-galactosidase by ELISA, HeLa cells. The procedure:
(§1) Liposomes were prepared starting with 200 mg of ST1223, synthesised according to the procedure described in EXAMPLE 1 and solubilised in 50 mL of chloroform (solubilisation phase). The solvent was then eliminated under vacuum for one night (t 30-40° C.; 400-700 mm Hg). The sample was hydrated with deionised water to a final concentration of 5 mM (hydration phase). The liposomes were then subjected to sonication for 1 h at 10-second intervals using a sonication bath. The liposomes thus prepared produced unilaminar vesicles.
(§2) The liposome-DNA complex was prepared by mixing the two solutions A and B described here below:
(§3) Solution A: 2.5 μg of plasmid DNA (pCMV/β- Gal, 7200 base pairs, used for the expression of the enzyme β-galactosidase) were diluted sterilely in 50 μl of HBS (HEPES 20 mM; NaCl 150 mM, pH 7.4)
(§4) Solution B: the liposome, prepared according to EXAMPLE 7, was diluted in distilled H2O to a concentration of 1.29 mM and 15 μL of this solution were diluted in 50 µL of distilled H2O).
(§5) The two solutions were mixed by stirring gently and incubated for 10-30 min at room temperature.
(§6) pCMV-β-Gal DNA transfection mediated by cationic liposomes in the various cell lines HeLa, MCF-7, Caco2, and T98-G was performed at different cell densities: 100,000 cells/dish 200.000 cells/dish and 300.000 cells/dish.
(§7) HeLa, MCF-7, Caco2 and T98-G cells were grown for 48 h (37° C., 5% CO2) in the following growth media:
HeLa cells RPMI-1640 (HyQ catalogue), 10% fetal calf serum, 1% L-glutamine, 1% streptomycin, 1% penicillin
(§8) Cells were plated at different densities (100.000 cells/dish, 200.000 cells/dish, 300.000 cells/dish) in Petri dishes (Corning or Falcon) measuring approximately 3 cm in diameter and incubated in 2 mL of medium for 18 h before being treated.
(§9) After replacing the medium with 2 mL of fresh medium, […] of the liposome-DNA complex, prepared as described in EXAMPLE 8, were added to each dish; after gentle stirring, the dishes were placed in a thermostat for 5 h (37° C., 5% CO2). Later, the cells were washed three times with 5 mL PBS buffer (Gibco catalogue) per dish and incubated for 16 h (37° C., 5% CO2).
(§10) After washing the cells three times with 5 mL PBS buffer (Gibco catalogue) per dish, total proteins were extracted and 50 μg of these were loaded per well in order to determine β-galactosidase production by immunoassay (β-Gal ELISA Kit, Boehringer).
On the technique in general: In an ELISA, binding on a coated surface is turned into a signal by an enzyme label.

In another assay the test system is MCF-7 cells. The assay can be described thus: pCMV-β-Gal plasmid DNA transfection mediated by ST1223 cationic liposomes, β-galactosidase by ELISA, MCF-7 cells. As for the experimental part: as §1, §2, §3, §4, §5, §6, §7
MCF-7 cells DMEM (Dulbecco Modified Eagle Medium, SIGMA catalogue), 10% fetal calf serum, 1% L-glutamine, 1% streptomycin, 1% penicillin
as §8, §9, §10

For the next assay, the system named is T98-G cells. The assay can be described thus: pCMV-β-Gal plasmid DNA transfection mediated by ST1223 cationic liposomes, β-galactosidase by ELISA, T98-G cells. The procedure:
as §1, §2, §3, §4, §5, §6, §7
T98-G cells EMEM (Essential Minimum Eagle Medium, SIGMA catalogue), 10% fetal calf serum, 1% L-glutamine, 1% streptomycin, 1% penicillin.
as §8, §9, §10

The next assay relates to Caco2 cells. The assay can be described thus: pCMV-β-Gal plasmid DNA transfection mediated by ST1223 cationic liposomes, β-galactosidase by ELISA, Caco2 cells. As for the experimental part:
as §1, §2, §3, §4, §5, §6, §7
Caco2 cells EMEM (Essential Minimum Eagle Medium, SIGMA catalogue), 15% fetal calf serum, 1% L-glutamine, 1% streptomycin, 1%, penicillin
as §8, §9, §10

As to `CCCCCCCCCCC(=O)O[C@H](CC(=O)OCCC(F)(F)C(F)(F)C(F)(F)C(F)(F)C(F)(F)C(F)(F)C(F)(F)C(F)(F)F)C[N+](C)(C)C.[Cl-]` [ST1223, undecanoyl-L-carnitine chloride 1,1H-2,2H-hepatdecafluorodecyl ester], the “cell density of greatest transfection efficiency” value with HeLa cells worked out at 200.000 cells/dish; in the assay on MCF-7 cells, 200.000 cells/dish; in the assay on T98-G cells, 300.000 cells/dish; with Caco2 cells it was 100.000 cells/dish. Also, the β-Gal was determined as 87 pg/dish in the assay on HeLa cells (density 100.000 cells/dish); 303 pg/dish in the assay with HeLa cells (density 200.000 cells/dish); 83 pg/dish in the assay on HeLa cells (density 300.000 cells/dish); 234 pg/dish in the assay on MCF-7 cells (density 100.000 cells/dish); 422 pg/dish in the assay with MCF-7 cells (density 200.000 cells/dish); 409 pg/dish in the assay on MCF-7 cells (density 300.000 cells/dish). Besides, the β-Gal in the assay on T98-G cells (density 100.000 cells/dish) is 126 pg/dish; in the assay with T98-G cells (density 200.000 cells/dish), 330 pg/dish; in the assay on T98-G cells (density 300.000 cells/dish) it was 491 pg/dish; with Caco2 cells (density 100.000 cells/dish), 422 pg/dish; in the assay on Caco2 cells (density 200.000 cells/dish), 395 pg/dish; in the assay with Caco2 cells (density 300.000 cells/dish) it was 385 pg/dish.
